According to PubChem BioAssay (NCI):
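Briefly, cells in 96-well plates were exposed to five compound concentrations for 48 h, and endpoints were estimated by linear interpolation. Abbreviation: GI50, concentration required for 50% inhibition of growth. TGI denotes the concentration required for complete inhibition of growth.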

Key:
Assay in all cases: growth of human tumour cells (NCI), 48 h
[1] = test system: CAKI-1 renal
[2] = test system: SK-MEL-5 melanoma
[3] = test system: NCI-H522 lung
[4] = test system: SNB-19 CNS
[5] = test system: SR leukemia
[6] = test system: HOP-62 NSCLC
[7] = test system: SN12C renal
[8] = test system: MOLT-4 leukemia
[9] = test system: BT-549 breast
[10] = test system: EKVX NSCLC

| Structure (SMILES) | TGI [1] [µM] | TGI [2] [µM] | TGI [3] [µM] | TGI [4] [µM] | TGI [5] [µM] | TGI [6] [µM] | TGI [7] [µM] | TGI [8] [µM] | TGI [9] [µM] | GI50 [1] [µM] | GI50 [2] [µM] | GI50 [5] [µM] | GI50 [8] [µM] | GI50 [9] [µM] | GI50 [3] [µM] | GI50 [10] [µM] | TGI [10] [µM] | GI50 [4] [µM] | GI50 [6] [µM] | GI50 [7] [µM] |
| --- | --- | --- | --- | --- | --- | --- | --- | --- | --- | --- | --- | --- | --- | --- | --- | --- | --- | --- | --- | --- |
| CN(C)CCNC(=O)Cn1cc([N+](=O)[O-])c(=O)c2ccccc21 | > 100 | > 100 | > 100 | > 100 | > 100 | > 100 | > 100 | > 100 | > 100 | – | – | – | – | – | – | – | – | – | – | – |
| CCCC[N+](CCCC)=c1ccc2nc3c(C)cc(N(CC)CC)cc3sc-2c1 | 1.1 | 0.403 | – | – | 1.97 | – | – | 3.14 | 1.73 | 0.183 | 0.0993 | 0.0524 | 0.0958 | 0.225 | – | – | – | – | – | – |
| CC(C)(C#N)c1cc(F)cc(C(=O)Nc2cc(Nc3ncccc3-c3ncnc4nc[nH]c34)ccc2F)c1 | – | > 10 | > 10 | > 10 | > 10 | > 10 | > 10 | > 10 | > 10 | – | 0.635 | 7.31 | 4.27 | 3.63 | 2.66 | 6.55 | > 10 | 4.44 | 0.475 | 3.11 |
| CCOC(=O)c1c2c(n(Cc3ccccc3)c1C)-c1ccccc1C(=O)C2=O | 36.6 | 41.2 | 35.5 | 29.4 | 19 | 27.1 | 41.6 | – | 29.7 | 17.2 | 18 | 3.39 | – | 15.7 | 14.8 | 11.9 | 29.2 | 15.4 | 13.7 | 15.7 |
| COc1cnc2c(c1)C(=O)c1c-2n(CCCN2CCC(O)CC2)c(=O)c2cc(F)ccc12 | – | 0.628 | 0.479 | 1.32 | 1.19 | 0.645 | – | 0.337 | 14.4 | – | 0.201 | 0.0806 | 0.0445 | 0.697 | 0.0584 | 0.271 | 1.62 | 0.175 | 0.142 | – |
| OCC1OC(OCC(O)C(O)C(O)C(/C=N/Nc2ccccc2)=N/Nc2ccccc2)C(O)C(O)C1O (centres undefined) | > 100 | > 100 | – | > 100 | > 100 | > 100 | > 100 | > 100 | > 100 | – | – | – | – | – | – | – | > 100 | – | – | – |
| Cn1cc(C2=C(c3cccnc3)C(=O)NC2=O)c2ccccc21 | > 25 | > 22.5 | > 25 | > 25 | > 25 | > 25 | > 25 | > 25 | > 25 | > 17.4 | > 12 | 15.5 | > 21.6 | > 25 | > 25 | – | – | > 25 | > 21.9 | > 25 |
| COc1ccc(-c2nn(-c3cccc(NC(=O)c4ccc5c(c4)OCCO5)c3)cc2-c2ccncc2)cc1Cl | 15.8 | 3.3 | 2.59 | 98.1 | 5.66 | 20.8 | > 100 | 25.7 | 7.4 | 2.63 | 0.968 | 1.1 | 2.46 | 1.79 | 0.454 | – | – | 4.63 | 2.94 | 2.92 |
| C=CC[P+](c1ccccc1)(c1ccccc1)c1ccccc1 | > 100 | 5.27 | 20.8 | > 100 | > 100 | > 100 | > 100 | > 100 | 94.5 | 52.2 | 1.6 | 1.45 | 5.07 | 4.05 | 1.99 | – | – | 4.1 | 12.1 | 6.36 |
| CC1CCN(CCCCCOc2ccc3oc4cc(Cl)ccc4c(=O)c3c2)CC1 | – | 11.3 | 18 | 15.2 | 5.18 | – | 13.1 | 10.3 | 13.1 | – | 5.36 | 1.41 | 2.87 | 6.54 | 9.09 | 7.03 | 14.3 | 8.03 | – | 6.49 |
| CO/N=C(\C)c1cccc(Nc2cc(-c3ccccc3)nc3c(O)cccc23)c1 | 13.7 | 39.2 | 6.95 | – | 29.8 | 8.39 | 24.5 | – | 55.1 | 2.78 | 16.6 | 3.83 | – | 15.1 | 2.78 | 17.4 | 59.6 | – | 3.47 | 5.04 |
| Cc1noc(C)c1-c1cc(O)cc(C(O)c2ccccc2)c1 (centres undefined) | > 100 | 29.5 | > 100 | > 100 | > 100 | > 100 | > 100 | 80.7 | > 100 | 4.35 | 5.95 | 1.01 | 17.9 | 28.2 | 27 | – | – | 5.69 | 4.89 | 17.2 |
